In ChEMBL document CHEMBL1148811, “N-benzoylpyrazoles are novel small-molecule inhibitors of human neutrophil elastase” (J Med Chem, 2007):

assay: Chemical stability in aqueous buffer at PH 7.3 by spontaneous hydrolysis; type: physicochemical

| half-life | SMILES |
| --- | --- |
| 2.5 h | O=C(c1cc(F)ccc1Cl)n1cccn1 |
| 3 h | O=C(c1ccccc1Cl)n1cc(Cl)cn1 |
| 1.2 h | Cc1ccccc1C(=O)n1cccn1 |
| 0.73 h | O=C(c1cc(F)c(F)cc1Cl)n1cc(Br)cn1 |
| 2.2 h | CC(C)(C)c1ccc(C(=O)n2cc(Cl)cn2)cc1 |
| 5.3 h | Cc1nn(C(=O)c2ccccc2F)c(C)c1Cl |
| 1.6 h | O=C(c1ccc(F)cc1)n1cc(Cl)cn1 |
| 2.6 h | Cc1nn(C(=O)c2ccc(Cl)cc2)c(C)c1Cl |
| 12.5 h | Cc1nn(C(=O)c2ccccc2Br)c(C)c1Cl |
| 25.1 h | Cc1cc(C)n(C(=O)c2ccc(C)c(Br)c2)n1 |
| 7.2 h | Cc1nn(C(=O)c2ccc(Cl)cc2Cl)c(C)c1Cl |
| 2.2 h | Cc1nn(C(=O)c2ccc(Cl)c([N+](=O)[O-])c2)c(C)c1Cl |
| 0.55 h | Cc1ccccc1C(=O)n1cc([N+](=O)[O-])cn1 |
| 3.1 h | Cc1nn(C(=O)c2cccc(Br)c2)c(C)c1Br |
| 10 h | Cc1cc(C)n(C(=O)c2ccc(Cl)c(Cl)c2)n1 |
| 0.22 h | O=C(c1cccc([N+](=O)[O-])c1)n1cc(Cl)cn1 |
| 0.04 h | O=C(c1ccccc1)n1cc([N+](=O)[O-])cn1 |

| half-life | SMILES |
| --- | --- |
| 2.1 h | Cc1ccc(C(=O)n2cc(Br)cn2)cc1 |
| 1.1 h | O=C(c1ccc(Cl)c(Cl)c1)n1cccn1 |
| 0.1 h | Cc1ccc(C(=O)n2ccc([N+](=O)[O-])n2)cc1 |
| 0.033 h | O=C(c1ccccc1)n1ccc([N+](=O)[O-])n1 |
| 6.2 h | Cc1ccccc1C(=O)n1cc(Br)cn1 |
| 10 h | CC(=O)Nc1ccc(C(=O)n2ccc(C)n2)cc1 |
| 0.29 h | COC(=O)c1ccnn1C(=O)c1ccc(Cl)cc1 |
| 0.21 h | Cc1ccc(C(=O)c2ccn(C(=O)c3ccc(F)cc3)n2)c(C)c1 |
| 0.51 h | O=C(Nc1ccccc1)c1ccn(C(=O)c2ccccc2)n1 |
| 1.1 h | O=C(c1ccccc1Cl)n1cccn1 |
| 2.1 h | Cc1nn(C(=O)c2ccc(Cl)cc2)c(C)c1Br |
| 4.2 h | Cc1ccccc1C(=O)n1cc(Cl)cn1 |
| 5.1 h | Cc1cccc(C(=O)n2cc(Br)cn2)c1 |
| 0.16 h | Cc1cc([N+](=O)[O-])nn1C(=O)c1ccccc1F |
| 3.1 h | O=C(c1c(F)cccc1F)n1cc(Br)cn1 |
| 5.6 h | Cc1cc(C)n(C(=O)c2ccc(Cl)c([N+](=O)[O-])c2)n1 |
| 4.2 h | COc1cc(C(=O)n2ccc(C)n2)cc(OC)c1OC |
